According to publication PMC6669903 (Neuron, 2019):

Tests used:
[1] = system: Rac1; assay: Rac1 activity in spines by FRET-FLIM sensor during sLTP; type: cell-based, rat; conditions: change in lifetime of GFP-Rac1 in stimulated spines; uncaging 0.5 Hz
[2] = system: Tiam1/CaMKII complex; type: cell-based; conditions: bath application (AP5, KN-93) or cotransfection (CaMKIIN)
[3] = system: Tiam1 phosphorylation by CaMKII in neurons in dissociated culture; assay: Tiam1 phosphorylation after chemical LTP, Phos-tag SDS-PAGE; type: cell-based, rat; conditions: KN-93 10 µM; glycine 200 µM for 10 min
[4] = system: dendritic spines of CA1 pyramidal neurons in hippocampal organotypic slice cultures; assay: structural LTP; type: cell-based, rat

COc1ccc(S(=O)(=O)N(CCO)c2ccccc2CN(C)C/C=C/c2ccc(Cl)cc2)cc1 [KN-93]
effect on Rac1 activation during sLTP [1]: effectively blocked the activation of Rac1
effect on Tiam1/CaMKII interaction after sLTP induction [2]: blocked
effect on persistent Tiam1 phosphorylation after chemical LTP [3]: blocked

O=c1cc(CN2CCOCC2)occ1OCCCCCSc1ccnc2cc(C(F)(F)F)ccc12 [EHT1864]
effect on established sLTP, drug added 5 min after induction ([4]; applied 5 min after sLTP induction): effectively blocked sLTP
effect on established sLTP, drug added 15 min after induction ([4]; applied 15 min after sLTP induction): effectively blocked sLTP
effect on sLTP, drug added before induction ([4]; applied 30 min before sLTP induction, spines visualized by untagged GFP): effectively inhibited sLTP

N[C@H](CCCP(=O)(O)O)C(=O)O [AP5, D-(−)-2-Amino-5-phosphonopentanoic acid]
effect on Tiam1/CaMKII interaction after sLTP induction [2]: blocked
